According to patent publication US20190183959A1, “COMPOSITIONS, KITS AND METHODS FOR TREATING TYPE II DIABETES MELLITUS” (VITNOVO, INC., priority 2017, published 2019):

Test system: NIDDM mice
Test: Oral glucose tolerance test after 28 days of oral dosing in NIDDM db/db mice (Example 2)
Type: in vivo, mouse
Details: HC extract 80 mg/Kg, sitagliptin 40 mg/Kg, p.o.
Method: Non-insulin dependent diabetic mellitus (NIDDM) male db/db (BKS.Cg-Dock 7^m+/+Lepr^db/JNarl) were used in the present study. They were supplied by National Laboratory Animal Center (NLAC) (Taipei, Taiwan) or by Jackson Laboratory (Bar Harbor, Me., USA). […] In Example 2, test compounds (i.e., HC extract (40 mg/Kg from day 1 to day 14; 80 mg/Kg from day 14 to day 28, p.o.), sitagliptin (40 mg/Kg, p.o.), or the combination of HC extract and sitagliptin) at the designated dose was fed to each mice by oral gavage from day 1, and continued for 27 consecutive days to day 28. […] Blood glucose, insulin, glucagon, glycated haemoglobin (HbA1c) levels were measured on designated days after overnight fasting. Then, oral glucose tolerance test (OGTT) was performed to evaluate effects of respective treatments on glucose homeostasis. Body weight of each test animal was also measured during the study period. The db/db mice were randomly divided into 4 groups: (1) the vehicle control group, (2) the HC extract (80 mg/kg), (3) the sitagliptin (40 mg/Kg) group, and […] the HC extract (80 mg/kg)+sitagliptin (40 mg/Kg) group. The mice were fasted for 5 hours and then respectively received the indicated treatments. […] The animals were treated by the manner described in the “Material and Methods” section.

N[C@@H](CC(=O)N1CCn2c(nnc2C(F)(F)F)C1)Cc1cc(F)c(F)cc1F [sitagliptin]
reduction in the level of total blood glucose (FIG. 3) (30 minutes time point post glucose treatment): about 11.3%
effect on fasting blood glucose level (FIG. 2) (combination judged 30 minutes post glucose treatment vs either alone): reduction in the fasting blood glucose level
